molecular target: Factor D (Homo sapiens (Human), UniProt P00746); assay: Factor D esterolytic assay; type: biochemical; conditions: Z-Lys-SBzl substrate, 100 mM HEPES, 500 mM NaCl, pH 7.5, 10% DMSO; tested a minimum of three times; read-out: Measured Ki (IC50) Value for Compounds: IC50
How it was run: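 Chromogenic thioesterase read-out: Z-Lys-SBzl (1.29 mM) hydrolysis by human Factor D, thiol detected with DTNB at 405 nm (690 nm background subtracted) for 600 s. Run in 100 mM HEPES, 500 mM NaCl, pH 7.5, 10% DMSO, substrate added immediately or after room-temperature preincubation. IC50 from percent inhibition versus enzyme alone, n≥3.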

Sequence of Factor D (P00746 26-253): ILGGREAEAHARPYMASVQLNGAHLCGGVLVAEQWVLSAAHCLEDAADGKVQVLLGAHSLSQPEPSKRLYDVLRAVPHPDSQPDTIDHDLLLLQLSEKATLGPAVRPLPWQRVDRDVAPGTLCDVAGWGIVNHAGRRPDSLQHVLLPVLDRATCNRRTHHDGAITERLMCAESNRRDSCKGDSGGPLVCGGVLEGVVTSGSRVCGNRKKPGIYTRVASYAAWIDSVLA

| SMILES | IC50 [µM] |
| --- | --- |
| CC(C)Nc1cc(-c2cccc(CN)c2)cc2c(COc3ccccc3CC(=O)O)coc12 [Compound 148d, 2-(2-((5-(3-(aminomethyl)phenyl)-7-(isopropylamino)benzofuran-3-yl)methoxy)phenyl)acetic acid] | < 1 |
| NCc1cccc(-c2cc(NCC3CCCO3)c3occ(COc4ccccc4CC(=O)O)c3c2)c1 (centres unmarked) [Compound 149d, 2-(2-((5-(3-(aminomethyl)phenyl)-7-(((tetrahydrofuran-2-yl)methyl)amino)benzofuran-3-yl)methoxy)phenyl)acetic acid] | < 1 |
| CCNc1cc(-c2cccc(CN)c2)cc2c(COc3ccccc3CC(=O)O)coc12 [Compound 150d, 2-(2-((5-(3-(aminomethyl)phenyl)-7-(ethylamino)benzofuran-3-yl)methoxy)phenyl)acetic acid] | < 1 |
| CC(C)CNc1cc(-c2cccc(CN)c2)cc2c(COc3ccccc3CC(=O)O)coc12 [Compound 151d, 2-(2-((5-(3-(aminomethyl)phenyl)-7-(isobutylamino)benzofuran-3-yl)methoxy)phenyl)acetic acid] | < 1 |
| CNc1cc(-c2cccc(CN)c2)cc2c(COc3ccccc3CC(=O)O)coc12 [Compound 152d, 2-(2-((5-(3-(aminomethyl)phenyl)-7-(methylamino)benzofuran-3-yl)methoxy)phenyl)acetic acid] | < 1 |
| NCc1cccc(-c2ccc3occ(COc4cc(CC5CC5)ccc4CC(=O)O)c3c2)c1 [Compound 153d, 2-(2-((5-(3-(aminomethyl)phenyl)benzofuran-3-yl)methoxy)-4-(cyclopropylmethyl)phenyl)acetic acid] | < 1 |
| NCc1cccc(-c2cc(N3CCOCC3)c3occ(COc4ccccc4CC(=O)O)c3c2)c1 [Compound 154c, 2-(2-((5-(3-(aminomethyl)phenyl)-7-morpholinobenzofuran-3-yl)methoxy)phenyl)acetic acid] | < 1 |
| NCc1cccc(-c2cc(Cn3ccnc3)c3occ(COc4ccccc4CC(=O)O)c3c2)c1 [Compound 155e, 2-(2-((7-((1H-imidazol-1-yl)methyl)-5-(3-(aminomethyl)phenyl)benzofuran-3-yl)methoxy)phenyl)acetic acid] | < 1 |
| NCc1cccc(-c2ccc3occ(COc4cc(CN)ccc4CC(=O)O)c3c2)c1 [Compound 156c, 2-(4-(aminomethyl)-2-((5-(3-(aminomethyl)phenyl)benzofuran-3-yl)methoxy)phenyl)acetic acid] | < 1 |
| CN1CCN(Cc2cc(-c3cccc(CN)c3)cc3c(COc4ccccc4CC(=O)O)coc23)CC1 [Compound 157e, 2-(2-((5-(3-(aminomethyl)phenyl)-7-((4-methylpiperazin-1-yl)methyl)benzofuran-3-yl)methoxy)phenyl)acetic acid] | < 1 |
| NCc1cccc(-c2ccc3occ(COc4cc(C(=O)O)ccc4CC(=O)O)c3c2)c1 [Compound 158d, 3-((5-(3-(aminomethyl)phenyl)benzofuran-3-yl)methoxy)-4-(carboxymethyl)benzoic acid] | < 1 |
| NCc1cccc(-c2cc(OCC3CC3)c3occ(COc4ccccc4CC(=O)O)c3c2)c1 [Compound 159f, 2-(2-((5-(3-(aminomethyl)phenyl)-7-(cyclopropylmethoxy)benzofuran-3-yl)methoxy)phenyl)acetic acid] | < 1 |
| COc1ccc(CC(=O)O)c(OCc2coc3c(OCC4CC4)cc(-c4cccc(CN)c4)cc23)c1 [Compound 160c, 2-(2-((5-(3-(aminomethyl)phenyl)-7-(cyclopropylmethoxy)benzofuran-3-yl)methoxy)-4-methoxyphenyl)acetic acid] | < 1 |
| Cc1ccc(CC(=O)O)c(OCc2coc3c(OCC4CC4)cc(-c4cccc(CN)c4)cc23)c1 [Compound 161c, 2-(2-((5-(3-(aminomethyl)phenyl)-7-(cyclopropylmethoxy)benzofuran-3-yl)methoxy)-4-methylphenyl)acetic acid] | < 1 |
| NCc1cccc(-c2cc(-c3cccnc3)c3occ(COc4ccccc4CC(=O)O)c3c2)c1 [Compound 162c, 2-(2-((5-(3-(aminomethyl)phenyl)-7-(pyridin-3-yl)benzofuran-3-yl)methoxy)phenyl)acetic acid] | < 1 |
| NCc1cccc(-c2cc(CC3CCOCC3)c3occ(COc4ccccc4CC(=O)O)c3c2)c1 [Compound 163e, 2-(2-((5-(3-(aminomethyl)phenyl)-7-((tetrahydro-2H-pyran-4-yl)methyl)benzofuran-3-yl)methoxy)phenyl)acetic acid] | < 1 |
| C[C@@H](N)c1cccc(-c2cc(CC3CCOCC3)c3occ(COc4ccccc4CC(=O)O)c3c2)c1F [Compound 164e, (R)-2-(2-((5-(3-(1-aminoethyl)-2-fluorophenyl)-7-((tetrahydro-2H-pyran-4-yl)methyl)benzofuran-3-yl)methoxy)phenyl)acetic acid] | < 1 |
| Cc1ncc(-c2cc(-c3cccc(CN)c3)cc3c(COc4ccccc4CC(=O)O)coc23)cn1 [Compound 165c, 2-(2-((5-(3-(aminomethyl)phenyl)-7-(2-methylpyrimidin-5-yl)benzofuran-3-yl)methoxy)phenyl)acetic acid] | < 1 |
| NCc1cccc(-c2cc(OCc3ccncc3)c3occ(COc4ccccc4CC(=O)O)c3c2)c1 [Compound 166f, 2-(2-((5-(3-(aminomethyl)phenyl)-7-(pyridin-4-ylmethoxy)benzofuran-3-yl)methoxy)phenyl)acetic acid] | < 1 |
| NCc1cccc(-c2ccc3oc(-c4ccc(F)cc4)c(COc4ccccc4CC(=O)O)c3c2)c1 [Compound 167e, 2-(2-((5-(3-(aminomethyl)phenyl)-2-(4-fluorophenyl)benzofuran-3-yl)methoxy)phenyl)acetic acid] | < 1 |
| COc1ccc(CC(=O)O)c(OCc2c(-c3ccc(F)cc3)oc3ccc(-c4cccc(CN)c4)cc23)c1 [Compound 168c, 2-(2-((5-(3-(aminomethyl)phenyl)-2-(4-fluorophenyl)benzofuran-3-yl)methoxy)-4-methoxyphenyl)acetic acid] | < 1 |
| COc1ccc(CC(=O)O)c(OCc2c(C(C)C)oc3ccc(-c4cccc(CN)c4)cc23)c1 [Compound 169c, 2-(2-((5-(3-(aminomethyl)phenyl)-2-isopropylbenzofuran-3-yl)methoxy)-4-methoxyphenyl)acetic acid] | < 1 |

The next lines start with the values.

| IC50 [µM] | SMILES |
| --- | --- |
| < 1 | NCc1cccc(-c2cc(-c3ccccc3)c3occ(COc4ccccc4CC(=O)O)c3c2)c1 [Compound 135c, 2-(2-((5-(3-(aminomethyl)phenyl)-7-phenylbenzofuran-3-yl)methoxy)phenyl)acetic acid] |
| < 1 | NCc1cccc(-c2cc(-c3c[nH]c4ccccc34)c3occ(COc4ccccc4CC(=O)O)c3c2)c1 [Compound 136d, 2-(2-((5-(3-(aminomethyl)phenyl)-7-(1H-indol-3-yl)benzofuran-3-yl)methoxy)phenyl)acetic acid] |
| < 1 | NCc1cccc(-c2cc(-c3cc4ccccc4[nH]3)c3occ(COc4ccccc4CC(=O)O)c3c2)c1 [Compound 137c, 2-(2-((5-(3-(aminomethyl)phenyl)-7-(1H-indol-2-yl)benzofuran-3-yl)methoxy)phenyl)acetic acid] |
| < 1 | COc1ccc(CC(=O)O)c(OCc2c(C)oc3ccc(-c4cccc(CN)c4)cc23)c1 [Compound 138c, 2-(2-((5-(3-(aminomethyl)phenyl)-2-methylbenzofuran-3-yl)methoxy)-4-methoxyphenyl)acetic acid] |
| < 1 | NCc1cccc(-c2ccc3oc(C(F)F)c(COc4ccccc4CC(=O)O)c3c2)c1 [Compound 139c, 2-(2-((5-(3-(aminomethyl)phenyl)-2-(difluoromethyl)benzofuran-3-yl)methoxy)phenyl)acetic acid] |
| < 1 | NCc1cccc(-c2ccc3oc(C(O)C(F)(F)F)c(COc4ccccc4CC(=O)O)c3c2)c1 (centres unmarked) [Compound 140c, 2-(2-((5-(3-(aminomethyl)phenyl)-2-(2,2,2-trifluoro-1-hydroxyethyl)benzofuran-3-yl)methoxy)phenyl)acetic acid] |
| < 1 | CC(=O)c1oc2ccc(-c3cccc(CN)c3)cc2c1COc1ccccc1CC(=O)O [Compound 141c, 2-(2-((2-acetyl-5-(3-(aminomethyl)phenyl)benzofuran-3-yl)methoxy)phenyl)acetic acid] |
| < 1 | CC(C)c1oc2ccc(-c3cccc(CN)c3)cc2c1COc1ccccc1CC(=O)O [Compound 142e, 2-(2-((5-(3-(aminomethyl)phenyl)-2-isopropylbenzofuran-3-yl)methoxy)phenyl)acetic acid] |
| < 1 | NCc1cccc(-c2cc(COc3ccc(F)cc3)c3occ(COc4ccccc4CC(=O)O)c3c2)c1 [Compound 143f, 2-(2-((5-(3-(aminomethyl)phenyl)-7-((4-fluorophenoxy)methyl)benzofuran-3-yl)methoxy)phenyl)acetic acid] |
| < 1 | NCc1cccc(-c2ccc3c(c2)c(COc2ccccc2CC(=O)O)nn3-c2ccccc2)c1 [Compound 144h, 2-(2-((5-(3-(aminomethyl)phenyl)-1-phenyl-1H-indazol-3-yl)methoxy)phenyl)acetic acid] |
| < 1 | NCc1cccc(-c2ccc3occ(COc4c(CN)cccc4CC(=O)O)c3c2)c1 [Compound 145c, 2-(3-(aminomethyl)-2-((5-(3-(aminomethyl)phenyl)benzofuran-3-yl)methoxy)phenyl)acetic acid] |
| < 1 | NCc1cccc(-c2cc(NCC3CCCC3)c3occ(COc4ccccc4CC(=O)O)c3c2)c1 [Compound 146d, 2-(2-((5-(3-(aminomethyl)phenyl)-7-((cyclopentylmethyl)amino)benzofuran-3-yl)methoxy)phenyl)acetic acid] |
| < 1 | NCc1cccc(-c2cc(NCC3CCOC3)c3occ(COc4ccccc4CC(=O)O)c3c2)c1 (centres unmarked) [Compound 147d, 2-(2-((5-(3-(aminomethyl)phenyl)-7-(((tetrahydrofuran-3-yl)methyl)amino)benzofuran-3-yl)methoxy)phenyl)acetic acid] |

Reference: US20250186391A1, “ORAL COMPLEMENT FACTOR D INHIBITORS” (BioCryst Pharmaceuticals, Inc., priority 2019, published 2025)
